This data set concerns rodent lifetime carcinogenesis bioassay, tumor incidence TD50. As to the kind of experiment: chronic cancer bioassays in animals – CPDB, compiled studies (AID 1745844).

This passage reports TD50 and carcinogen call results from PubChem BioAssay AID1745844 (Carcinogenic Potency Database (CPDB), 2022).

In general, TD50 refers to the dose at which the toxic effect under study appears in half of the subjects.

Several values for one entry are separate records, joined by “and”; a condition that tells them apart may be missing. Equal entries are not always repeated. Activity calls are given as the source filed them. The rule behind the calls is not given here.

As for `O=Nc1ccc(NO)cc1`, the TD50 by setting is: (mouse, strain B6C3F1, females, in feed, site: any site (literature study), lesion: several types, types named in the paper, dosed 104 weeks, study length 105 weeks) 6710 mg/kg/day (inactive); (mouse, strain B6C3F1, females, in feed, site: liver, lesion: hepatocellular adenoma + hepatocellular carcinoma + neoplastic nodule, dosed 104 weeks, study length 105 weeks) 656 mg/kg/day; (mouse, strain B6C3F1, females, in feed, site: lung, lesion: alveolar/bronchiolar adenoma + alveolar/bronchiolar carcinoma, dosed 104 weeks, study length 105 weeks) 6660 mg/kg/day; (mouse, strain B6C3F1, males, in feed, site: any site (literature study), lesion: several types, types named in the paper, dosed 104 weeks, study length 105 weeks) 936 mg/kg/day (inactive); (mouse, strain B6C3F1, males, in feed, site: liver, lesion: hepatocellular adenoma + hepatocellular carcinoma + neoplastic nodule, dosed 104 weeks, study length 105 weeks) 1.23e+06 mg/kg/day; (rat, strain Fischer 344, females, in feed, site: urinary bladder, lesion: squamous-cell carcinoma + transitional-cell carcinoma + transitional-cell papilloma, dosed 104 weeks, study length 105 weeks) 106 mg/kg/day. Besides, the TD50 was 182 mg/kg/day (rat, strain Fischer 344, females, in feed, site: urinary bladder, lesion: transitional-cell carcinoma, dosed 104 weeks, study length 105 weeks); 349 mg/kg/day (inactive) (rat, strain Fischer 344, males, in feed, site: any site (literature study), lesion: several types, types named in the paper, dosed 104 weeks, study length 105 weeks); 1130 mg/kg/day (rat, strain Fischer 344, males, in feed, site: liver, lesion: hepatocellular adenoma + hepatocellular carcinoma + neoplastic nodule, dosed 104 weeks, study length 105 weeks).
Regarding `CCOc1ccccc1C(N)=O`, the TD50 is, setting by setting: (mouse, strain B6C3F1, females, in feed, site: liver, lesion: several types, types named in the paper, dosed 96 weeks, study length 100 weeks) 3310 mg/kg/day; (mouse, strain B6C3F1, males, in feed, site: liver, lesion: several types, types named in the paper, dosed 96 weeks, study length 100 weeks) 513 mg/kg/day.
For the compound `CC[C@]1(O)C[C@@H]2CN(CCc3c([nH]c4ccccc34)[C@@](C(=O)OC)(c3cc4c(cc3OC)N(C)[C@H]3[C@@](O)(C(=O)OC)[C@H](OC(C)=O)[C@]5(CC)C=CCN6CC[C@]43[C@@H]65)C2)C1`, the carcinogen call (rat, strain BR 46, males, i.v., site: any site (literature study), lesion: several types, types named in the paper, dosed 52 weeks, study length 104 weeks) is “negative (inactive)”.
Regarding `O=C1c2cccc(O)c2C(=O)c2c(O)cccc21`, the TD50 was 201 mg/kg/day (mouse, strain C3H/HeN, males, in feed, site: liver, lesion: hepatocellular adenoma, dosed 77 weeks, study length 77 weeks); 336 mg/kg/day (mouse, strain C3H/HeN, males, in feed, site: liver, lesion: hepatocellular carcinoma, dosed 77 weeks, study length 77 weeks); 201 mg/kg/day (mouse, strain C3H/HeN, males, in feed, site: liver, lesion: several types, types named in the paper, dosed 77 weeks, study length 77 weeks); 245 mg/kg/day (rat, strain ACI, males, in feed, site: large intestine, lesion: several types, types named in the paper, dosed 69 weeks, study length 69 weeks).
Consider `Cc1nc(N)cc2[nH]c3ccccc3c12`, for which the TD50 by setting is: (mouse, strain CDF1, females, in feed, site: liver, lesion: hepatocellular carcinoma, dosed 88 weeks, study length 88 weeks) 6.81 mg/kg/day; (mouse, strain CDF1, males, in feed, site: liver, lesion: hepatocellular carcinoma, dosed 88 weeks, study length 88 weeks) 88.2 mg/kg/day; (mouse, strain CDF1, males, in feed, site: liver, lesion: several types, types named in the paper, dosed 88 weeks, study length 88 weeks) 83.2 mg/kg/day; (mouse, strain CDF1, males, in feed, site: lung, lesion: adenocarcinoma, dosed 88 weeks, study length 88 weeks) 81.1 mg/kg/day; (mouse, strain CDF1, males, in feed, site: lung, lesion: adenoma, dosed 88 weeks, study length 88 weeks) 224 mg/kg/day; (rat, strain ACI, females, in feed, site: ileum, lesion: adenoma, dosed 124 weeks, study length 124 weeks) 41.4 mg/kg/day. In addition, the TD50 by setting is: (rat, strain ACI, females, in feed, site: jejunum, lesion: adenocarcinoma, dosed 124 weeks, study length 124 weeks) 41.4 mg/kg/day; (rat, strain ACI, females, in feed, site: liver, lesion: hemangioendothelial sarcoma, dosed 124 weeks, study length 124 weeks) 41.4 mg/kg/day; (rat, strain ACI, females, in feed, site: liver, lesion: neoplastic nodule, dosed 124 weeks, study length 124 weeks) 4.43 mg/kg/day; (rat, strain ACI, females, in feed, site: liver, lesion: several types, types named in the paper, dosed 124 weeks, study length 124 weeks) 4.43 mg/kg/day; (rat, strain F344/DuCrj, females, in feed, site: all sites, lesion: malignant lymphoma, dosed 112 weeks, study length 112 weeks) 29 mg/kg/day; (rat, strain F344/DuCrj, females, in feed, site: clitoral gland, lesion: adenocarcinoma, dosed 112 weeks, study length 112 weeks) 75.5 mg/kg/day. In addition, the TD50 is, setting by setting: (rat, strain F344/DuCrj, females, in feed, site: clitoral gland, lesion: adenoma, dosed 112 weeks, study length 112 weeks) 12.8 mg/kg/day; (rat, strain F344/DuCrj, females, in feed, site: clitoral gland, lesion: several types, types named in the paper, dosed 112 weeks, study length 112 weeks) 9.42 mg/kg/day; (rat, strain F344/DuCrj, females, in feed, site: liver, lesion: hepatocellular adenoma, dosed 112 weeks, study length 112 weeks) 74.3 mg/kg/day; (rat, strain F344/DuCrj, females, in feed, site: mammary gland, lesion: adenoma, dosed 112 weeks, study length 112 weeks) 76.2 mg/kg/day; (rat, strain F344/DuCrj, females, in feed, site: mammary gland, lesion: several types, types named in the paper, dosed 112 weeks, study length 112 weeks) 9.78 mg/kg/day and 11.5 mg/kg/day; (rat, strain F344/DuCrj, females, in feed, site: uterus, lesion: endometrial stromal polyp, dosed 112 weeks, study length 112 weeks) 3.6 mg/kg/day. For the same compound, the TD50 is, setting by setting: (rat, strain F344/DuCrj, males, in feed, site: liver, lesion: hepatocellular adenoma, dosed 112 weeks, study length 112 weeks) 10.7 mg/kg/day; (rat, strain F344/DuCrj, males, in feed, site: mammary gland, lesion: several types, types named in the paper, dosed 112 weeks, study length 112 weeks) 8.43 mg/kg/day; (rat, strain F344/DuCrj, males, in feed, site: urinary bladder, lesion: several types, types named in the paper, dosed 112 weeks, study length 112 weeks) 9.72 mg/kg/day; (rat, strain F344/DuCrj, males, in feed, site: urinary bladder, lesion: transitional-cell carcinoma, dosed 112 weeks, study length 112 weeks) 59.9 mg/kg/day; (rat, strain F344/DuCrj, males, in feed, site: urinary bladder, lesion: transitional-cell papilloma, dosed 112 weeks, study length 112 weeks) 12.3 mg/kg/day.
For `CC1CN(N=O)CC(C)O1` (stereo not drawn), the TD50 is 1.55 mg/kg/day (hamster, strain Syrian Golden, females, by gavage, site: any site (literature study), lesion: several types, types named in the paper, dosed 59 weeks, study length 83 weeks); 9.45 mg/kg/day (hamster, strain Syrian Golden, females, by gavage, site: forestomach, lesion: several types, types named in the paper, dosed 59 weeks, study length 83 weeks); 12.9 mg/kg/day (hamster, strain Syrian Golden, females, by gavage, site: gall bladder, lesion: several types, types named in the paper, dosed 59 weeks, study length 83 weeks); 11 mg/kg/day (hamster, strain Syrian Golden, females, by gavage, site: liver, lesion: several types, types named in the paper, dosed 59 weeks, study length 83 weeks); 34.6 mg/kg/day (hamster, strain Syrian Golden, females, by gavage, site: lung, lesion: several types, types named in the paper, dosed 59 weeks, study length 83 weeks); 5.75 mg/kg/day (hamster, strain Syrian Golden, females, by gavage, site: pancreas, lesion: several types, types named in the paper, dosed 59 weeks, study length 83 weeks). Also, the TD50 (hamster, strain Syrian Golden, females, by gavage, site: pancreatic duct, lesion: adenoma, dosed 59 weeks, study length 83 weeks) amounted to 6.99 mg/kg/day; the TD50 (hamster, strain Syrian Golden, females, by gavage, site: pancreatic duct, lesion: carcinoma, dosed 59 weeks, study length 83 weeks) was 32.1 mg/kg/day; the TD50 (hamster, strain Syrian Golden, females, by gavage, site: several sites, sites named in the paper, lesion: several types, types named in the paper, dosed 59 weeks, study length 83 weeks) was 9.17 mg/kg/day and 16.9 mg/kg/day; the TD50 (hamster, strain Syrian Golden, females, by gavage, site: trachea, lesion: papillary polyp, dosed 59 weeks, study length 83 weeks) is 6.4 mg/kg/day; the TD50 (hamster, strain Syrian Golden, males, by gavage, site: any site (literature study), lesion: several types, types named in the paper, dosed 66 weeks, study length 87 weeks) came to 1.68 mg/kg/day; the TD50 (hamster, strain Syrian Golden, males, by gavage, site: forestomach, lesion: several types, types named in the paper, dosed 66 weeks, study length 87 weeks) is 2.91 mg/kg/day. Also, the TD50 was 27.3 mg/kg/day (hamster, strain Syrian Golden, males, by gavage, site: larynx, lesion: squamous-cell papilloma, dosed 66 weeks, study length 87 weeks); 10.1 mg/kg/day (hamster, strain Syrian Golden, males, by gavage, site: liver, lesion: several types, types named in the paper, dosed 66 weeks, study length 87 weeks); 1.21 mg/kg/day (hamster, strain Syrian Golden, males, by gavage, site: lung, lesion: several types, types named in the paper, dosed 66 weeks, study length 87 weeks); 2.78 mg/kg/day (hamster, strain Syrian Golden, males, by gavage, site: pancreas, lesion: several types, types named in the paper, dosed 66 weeks, study length 87 weeks); 21.2 mg/kg/day (hamster, strain Syrian Golden, males, by gavage, site: pancreatic duct, lesion: adenoma, dosed 66 weeks, study length 87 weeks); 6.67 mg/kg/day (hamster, strain Syrian Golden, males, by gavage, site: pancreatic duct, lesion: carcinoma, dosed 66 weeks, study length 87 weeks). For the same compound, under “hamster, strain Syrian Golden, males, by gavage, site: trachea, lesion: papillary polyp, dosed 66 weeks, study length 87 weeks”, the TD50 is 10.5 mg/kg/day. The carcinogen call (hamster, strain Syrian Golden, females, by gavage, site: larynx, lesion: squamous-cell papilloma, dosed 59 weeks, study length 83 weeks) was “positive”.
Turning to `c1ccc2sc(SN3CCOCC3)nc2c1`, the TD50 (mouse, strain B6AKF1, females, oral dosing, site: any site (literature study), lesion: several types, types named in the paper, dosed 76 weeks, study length 76 weeks) is 1310 mg/kg/day (inactive); the TD50 (mouse, strain B6AKF1, males, oral dosing, site: liver, lesion: hepatoma, dosed 76 weeks, study length 76 weeks) was 20100 mg/kg/day (inactive); the TD50 (mouse, strain B6C3F1, females, oral dosing, site: any site (literature study), lesion: several types, types named in the paper, dosed 76 weeks, study length 76 weeks) is 386 mg/kg/day (inactive); the TD50 (mouse, strain B6C3F1, females, oral dosing, site: liver, lesion: hepatoma, dosed 76 weeks, study length 76 weeks) is 1230 mg/kg/day (inactive); the TD50 (mouse, strain B6C3F1, females, oral dosing, site: lung, lesion: adenoma, dosed 76 weeks, study length 76 weeks) is 598 mg/kg/day (inactive); the TD50 (mouse, strain B6C3F1, males, oral dosing, site: any site (literature study), lesion: several types, types named in the paper, dosed 76 weeks, study length 76 weeks) is 200 mg/kg/day (inactive). The TD50 by setting is: (mouse, strain B6C3F1, males, oral dosing, site: liver, lesion: hepatoma, dosed 76 weeks, study length 76 weeks) 359 mg/kg/day (inactive); (mouse, strain B6C3F1, males, oral dosing, site: lung, lesion: adenoma, dosed 76 weeks, study length 76 weeks) 556 mg/kg/day (inactive). Moreover, the carcinogen call is “negative (inactive)” (mouse, strain B6AKF1, females, oral dosing, site: liver, lesion: hepatoma, dosed 76 weeks, study length 76 weeks); “negative (inactive)” (mouse, strain B6AKF1, females, oral dosing, site: lung, lesion: adenoma, dosed 76 weeks, study length 76 weeks); “negative (inactive)” (mouse, strain B6AKF1, males, oral dosing, site: any site (literature study), lesion: several types, types named in the paper, dosed 76 weeks, study length 76 weeks); “negative (inactive)” (mouse, strain B6AKF1, males, oral dosing, site: lung, lesion: adenoma, dosed 76 weeks, study length 76 weeks).
Take `COc1ccc(C(Cl)=C(c2ccc(OC)cc2)c2ccc(OC)cc2)cc1`: the carcinogen call (rat, strain Charles River CD (Sprague-Dawley), females, in feed, site: liver, lesion: one or several types, types not named, dosed 104 weeks, study length 104 weeks) was “negative (inactive)” and the carcinogen call (rat, strain Charles River CD (Sprague-Dawley), males, in feed, site: liver, lesion: one or several types, types not named, dosed 104 weeks, study length 104 weeks) was “negative (inactive)”.
